From US20230151049A1, “Compounds Useful in HIV Therapy” (priority 2020, published 2023)
Like-named read-outs stand apart in the source and are kept apart here.

Test: in vivo
Details: for concentration at 1 day / concentration at 7 day / concentration at 14 day / concentration at 21 day / concentration at 28 day / concentration at 35 day / concentration at 42 day / concentration at 49 day / concentration at 56 day / concentration at 63 day / concentration at 70 day / concentration at 77 day / concentration at 84 day: male, Wistar Han, rat, in vivo
In short: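 Three male Wistar Han rats (200-250 g), not fasted, received a single intramuscular gastrocnemius injection of prodrug suspension at 20 mg/kg EFdA equivalent. Tail-vein blood was taken into NaF/Na2EDTA, mixed 1:1 with 100 mM ammonium acetate pH 4, frozen, and analysed by LC-MS/MS.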

[1] = day 77, single IM Example 2A 56 mg/kg
[2] = day 84, single IM Example 2A 56 mg/kg

C#C[C@]1(COP(=O)(N[C@@H](Cc2ccccc2)C(=O)OCCCCCCCCCCCCCCCCCCCC)Oc2ccccc2)O[C@@H](n2cnc3c(N)nc(F)nc32)C[C@@H]1O (single isomer, unassigned) [Example 43A]
Mean concentration of EFdA (day 1, single IM Example 43A 60 mg/kg): BQL (BQL = below quantification limit, 0.3 ng/mL for both) | Mean concentration of EFdA (day 7, single IM Example 43A 60 mg/kg): BQL (BQL = below quantification limit, 0.3 ng/mL for both) | Mean concentration of EFdA (day 14, single IM Example 43A 60 mg/kg): BQL (BQL = below quantification limit, 0.3 ng/mL for both) | Mean concentration of EFdA (day 21, single IM Example 43A 60 mg/kg): BQL (BQL = below quantification limit, 0.3 ng/mL for both) | Mean concentration of EFdA (day 28, single IM Example 43A 60 mg/kg): BQL (BQL = below quantification limit, 0.3 ng/mL for both) | Mean concentration of EFdA (day 35, single IM Example 43A 60 mg/kg): BQL (BQL = below quantification limit, 0.3 ng/mL for both) | Mean concentration of EFdA (day 42, single IM Example 43A 60 mg/kg): BQL (BQL = below quantification limit, 0.3 ng/mL for both) | Mean concentration of EFdA (day 49, single IM Example 43A 60 mg/kg): BQL (BQL = below quantification limit, 0.3 ng/mL for both) | Mean concentration of EFdA (day 56, single IM Example 43A 60 mg/kg): BQL (BQL = below quantification limit, 0.3 ng/mL for both) | Mean concentration of EFdA (day 63, single IM Example 43A 60 mg/kg): BQL (BQL = below quantification limit, 0.3 ng/mL for both) | Mean concentration of EFdA (day 70, single IM Example 43A 60 mg/kg): BQL (BQL = below quantification limit, 0.3 ng/mL for both) | Mean concentration of EFdA (day 77, single IM Example 43A 60 mg/kg): BQL (BQL = below quantification limit, 0.3 ng/mL for both) | Mean concentration of EFdA (day 84, single IM Example 43A 60 mg/kg): BQL (BQL = below quantification limit, 0.3 ng/mL for both) | concentration at 1 day (day 1, single IM Example 43A 60 mg/kg, read-out: Mean concentration of Example 43A): 89.3 ng/mL | concentration at 7 day (day 7, single IM Example 43A 60 mg/kg, read-out: Mean concentration of Example 43A): 25.4 ng/mL | concentration at 14 day (day 14, single IM Example 43A 60 mg/kg, read-out: Mean concentration of Example 43A): 22.7 ng/mL | concentration at 21 day (day 21, single IM Example 43A 60 mg/kg, read-out: Mean concentration of Example 43A): 22.1 ng/mL | concentration at 28 day (day 28, single IM Example 43A 60 mg/kg, read-out: Mean concentration of Example 43A): 11.3 ng/mL | concentration at 35 day (day 35, single IM Example 43A 60 mg/kg, read-out: Mean concentration of Example 43A): 12.7 ng/mL | concentration at 42 day (day 42, single IM Example 43A 60 mg/kg, read-out: Mean concentration of Example 43A): 10.4 ng/mL | concentration at 49 day (day 49, single IM Example 43A 60 mg/kg, read-out: Mean concentration of Example 43A): 7.22 ng/mL | concentration at 56 day (day 56, single IM Example 43A 60 mg/kg, read-out: Mean concentration of Example 43A): 8.67 ng/mL | concentration at 63 day (day 63, single IM Example 43A 60 mg/kg, read-out: Mean concentration of Example 43A): 12.5 ng/mL | concentration at 70 day (day 70, single IM Example 43A 60 mg/kg, read-out: Mean concentration of Example 43A): 13.1 ng/mL | concentration at 77 day (day 77, single IM Example 43A 60 mg/kg, read-out: Mean concentration of Example 43A): 13.5 ng/mL | concentration at 84 day (day 84, single IM Example 43A 60 mg/kg, read-out: Mean concentration of Example 43A): 7.94 ng/mL

C#C[C@]1(COP(=O)(N[C@@H](Cc2cc(F)cc(F)c2)C(=O)OCCCCCCCCCCCCCCCC)Oc2ccccc2)O[C@@H](n2cnc3c(N)nc(F)nc32)C[C@@H]1O (single isomer, unassigned) [Example 39A]
Mean concentration of EFdA (day 28, single IM Example 39A 58 mg/kg): BQL (BQL = below quantification limit, 0.3 ng/mL for both) | Mean concentration of EFdA (day 35, single IM Example 39A 58 mg/kg): BQL (BQL = below quantification limit, 0.3 ng/mL for both) | Mean concentration of EFdA (day 42, single IM Example 39A 58 mg/kg): BQL (BQL = below quantification limit, 0.3 ng/mL for both) | Mean concentration of EFdA (day 49, single IM Example 39A 58 mg/kg): BQL (BQL = below quantification limit, 0.3 ng/mL for both) | Mean concentration of EFdA (day 56, single IM Example 39A 58 mg/kg): BQL (BQL = below quantification limit, 0.3 ng/mL for both) | Mean concentration of EFdA (day 63, single IM Example 39A 58 mg/kg): BQL (BQL = below quantification limit, 0.3 ng/mL for both) | Mean concentration of EFdA (day 70, single IM Example 39A 58 mg/kg): BQL (BQL = below quantification limit, 0.3 ng/mL for both) | Mean concentration of EFdA (day 77, single IM Example 39A 58 mg/kg): BQL (BQL = below quantification limit, 0.3 ng/mL for both) | Mean concentration of EFdA (day 84, single IM Example 39A 58 mg/kg): BQL (BQL = below quantification limit, 0.3 ng/mL for both) | concentration at 1 day (day 1, single IM Example 39A 58 mg/kg, read-out: Mean concentration of Example 39A): 17 ng/mL | concentration at 7 day (day 7, single IM Example 39A 58 mg/kg, read-out: Mean concentration of Example 39A): 13.2 ng/mL | concentration at 14 day (day 14, single IM Example 39A 58 mg/kg, read-out: Mean concentration of Example 39A): 6.43 ng/mL | concentration at 21 day (day 21, single IM Example 39A 58 mg/kg, read-out: Mean concentration of Example 39A): 8.77 ng/mL | concentration at 28 day (day 28, single IM Example 39A 58 mg/kg, read-out: Mean concentration of Example 39A): 7.98 ng/mL | concentration at 35 day (day 35, single IM Example 39A 58 mg/kg, read-out: Mean concentration of Example 39A): 3.56 ng/mL | concentration at 42 day (day 42, single IM Example 39A 58 mg/kg, read-out: Mean concentration of Example 39A): 2.61 ng/mL | concentration at 49 day (day 49, single IM Example 39A 58 mg/kg, read-out: Mean concentration of Example 39A): 2.45 ng/mL | concentration at 56 day (day 56, single IM Example 39A 58 mg/kg, read-out: Mean concentration of Example 39A): 3.42 ng/mL | concentration at 63 day (day 63, single IM Example 39A 58 mg/kg, read-out: Mean concentration of Example 39A): 2.7 ng/mL | concentration at 70 day (day 70, single IM Example 39A 58 mg/kg, read-out: Mean concentration of Example 39A): 1.68 ng/mL | concentration at 77 day (day 77, single IM Example 39A 58 mg/kg, read-out: Mean concentration of Example 39A): 1.18 ng/mL | concentration at 84 day (day 84, single IM Example 39A 58 mg/kg, read-out: Mean concentration of Example 39A): 1.39 ng/mL

C#C[C@]1(COP(=O)(N[C@@H](Cc2ccccc2)C(=O)OCCCCCCCCCCCCCCCC)Oc2ccccc2)O[C@@H](n2cnc3c(N)nc(F)nc32)C[C@@H]1O (single isomer, unassigned) [Example 2A]
Mean concentration of Example 2A (day 42, single IM Example 2A 56 mg/kg): BQL | Mean concentration of Example 2A (day 49, single IM Example 2A 56 mg/kg): BQL | Mean concentration of Example 2A (day 70, single IM Example 2A 56 mg/kg): BQL | Mean concentration of EFdA [1]: BQL (BQL = below quantification limit, o.5 ng/mL for Example 2A and 0.1-0.3 ng/mL for EFdA) | Mean concentration of Example 2A [1]: BQL | Mean concentration of EFdA [2]: BQL (BQL = below quantification limit, o.5 ng/mL for Example 2A and 0.1-0.3 ng/mL for EFdA) | Mean concentration of Example 2A [2]: BQL | concentration at 1 day (day 1, single IM Example 2A 56 mg/kg, read-out: Mean concentration of Example 2A): 3.54 ng/mL | concentration at 7 day (day 7, single IM Example 2A 56 mg/kg, read-out: Mean concentration of Example 2A): 1.35 ng/mL | concentration at 14 day (day 14, single IM Example 2A 56 mg/kg, read-out: Mean concentration of Example 2A): 3.35 ng/mL | concentration at 21 day (day 21, single IM Example 2A 56 mg/kg, read-out: Mean concentration of Example 2A): 2.42 ng/mL | concentration at 28 day (day 28, single IM Example 2A 56 mg/kg, read-out: Mean concentration of Example 2A): 4.08 ng/mL | concentration at 35 day (day 35, single IM Example 2A 56 mg/kg, read-out: Mean concentration of Example 2A): 4.53 ng/mL | concentration at 56 day (day 56, single IM Example 2A 56 mg/kg, read-out: Mean concentration of Example 2A): 1.14 ng/mL | concentration at 63 day (day 63, single IM Example 2A 56 mg/kg, read-out: Mean concentration of Example 2A): 1.05 ng/mL
